In PubChem BioAssay AID248 (DTP/NCI, 2004):
Where “and” joins values, the source holds several entries; their conditions need not be identical. Equal entries are not always repeated. Inconclusive results and toxic doses are left out. Rule as the data show it: active = T/C of 150% or more; inactive = T/C below 125%.

Tested on: L1210 leukemia ip in BDF1 mice, survival T/C
Experiment: NCI In Vivo Anticancer Drug Screen. Data for tumor model L1210 Leukemia (intraperitoneal) in B6D2F1 (BDF1) mice
Conditions: endpoint: mean survival time, higher = longer survival
Method in brief: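 Value reflects the ratio of survival in compound-treated mice to survival in vehicle-treated controls, with both groups carrying the same transplanted tumor.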

[1] = dose: 100.0 mg/kg/injection, schedule: Q01DX009 (ip), vehicle: Klucel (hydroxypropylcellulose) (HPC)
[2] = dose: 200.0 mg/kg/injection, schedule: Q01DX009 (ip), vehicle: Klucel (hydroxypropylcellulose) (HPC)
[3] = dose: 400.0 mg/kg/injection, schedule: Q01DX009 (ip), vehicle: Klucel (hydroxypropylcellulose) (HPC)
[4] = dose: 100.0 mg/kg/injection, schedule: Q04DX003 (ip), vehicle: Klucel (hydroxypropylcellulose) (HPC)
[5] = dose: 200.0 mg/kg/injection, schedule: Q04DX003 (ip), vehicle: Klucel (hydroxypropylcellulose) (HPC)
[6] = dose: 100.0 mg/kg/injection, schedule: Q01DX001 (ip), vehicle: saline with Tween-80
[7] = dose: 100.0 mg/kg/injection, schedule: Q01DX009 (ip), vehicle: saline with Tween-80
[8] = dose: 100.0 mg/kg/injection, schedule: Q04DX002 (ip), vehicle: saline with Tween-80
[9] = dose: 100.0 mg/kg/injection, schedule: Q04DX003 (ip), vehicle: saline with Tween-80
[10] = dose: 200.0 mg/kg/injection, schedule: Q01DX001 (ip), vehicle: saline with Tween-80
[11] = dose: 200.0 mg/kg/injection, schedule: Q01DX009 (ip), vehicle: saline with Tween-80
[12] = dose: 200.0 mg/kg/injection, schedule: Q04DX002 (ip), vehicle: saline with Tween-80
[13] = dose: 200.0 mg/kg/injection, schedule: Q04DX003 (ip), vehicle: saline with Tween-80
[14] = dose: 400.0 mg/kg/injection, schedule: Q01DX001 (ip), vehicle: saline with Tween-80
[15] = dose: 400.0 mg/kg/injection, schedule: Q04DX002 (ip), vehicle: saline with Tween-80
[16] = dose: 400.0 mg/kg/injection, schedule: Q04DX003 (ip), vehicle: saline with Tween-80
[17] = dose: 100.0 mg/kg/injection, schedule: Q04DX002 (ip), vehicle: Klucel (hydroxypropylcellulose) (HPC)
[18] = dose: 100.0 mg/kg/injection, schedule: Q01DX001 (ip), vehicle: saline
[19] = dose: 200.0 mg/kg/injection, schedule: Q01DX001 (ip), vehicle: saline
[20] = dose: 400.0 mg/kg/injection, schedule: Q01DX001 (ip), vehicle: saline
[21] = dose: 100.0 mg/kg/injection, schedule: Q01DX001 (ip), vehicle: other
[22] = dose: 200.0 mg/kg/injection, schedule: Q01DX001 (ip), vehicle: other
[23] = dose: 400.0 mg/kg/injection, schedule: Q01DX001 (ip), vehicle: other
[24] = dose: 25.0 mg/kg/injection, schedule: Q01DX009 (ip), vehicle: Klucel (hydroxypropylcellulose) (HPC)
[25] = dose: 100.0 mg/kg/injection, schedule: Q04DX003 (ip), vehicle: acetone
[26] = dose: 200.0 mg/kg/injection, schedule: Q04DX003 (ip), vehicle: acetone
[27] = dose: 400.0 mg/kg/injection, schedule: Q04DX003 (ip), vehicle: acetone

Measured: T/C

CCc1c([N+](=O)[O-])oc2ccc(Cl)cc12
inactive: [1] 103 % of control | [2] 105 % of control | [3] 107 % of control

Cc1cccc(C)c1NC(=O)C(Cl)c1ccccc1 (stereo not drawn)
inactive: [1] 107 % of control | [4] 98 % of control | [2] 91 % of control | [5] 98 % of control | [3] 98 % of control | dose: 400.0 mg/kg/injection, schedule: Q04DX003 (ip), vehicle: Klucel (hydroxypropylcellulose) (HPC) 98 % of control

O=C(Nc1ccccc1[N+](=O)[O-])OCCOc1ccccc1
inactive: [6] 98 % of control | [7] 103 % of control and 90 % of control | [8] 93 % of control and 95 % of control | [9] 97 % of control | [10] 91 % of control | [11] 100 % of control and 92 % of control | [12] 98 % of control and 100 % of control | [13] 103 % of control | [14] 93 % of control | dose: 400.0 mg/kg/injection, schedule: Q01DX009 (ip), vehicle: saline with Tween-80 93 % of control and 90 % of control | [15] 104 % of control and 92 % of control | [16] 105 % of control

Cc1ccc([N+](=O)[O-])cc1NC(=O)Nc1ccccc1C(N)=O
inactive: [17] 114 % of control | dose: 200.0 mg/kg/injection, schedule: Q04DX002 (ip), vehicle: Klucel (hydroxypropylcellulose) (HPC) 103 % of control | dose: 400.0 mg/kg/injection, schedule: Q04DX002 (ip), vehicle: Klucel (hydroxypropylcellulose) (HPC) 94 % of control

Cc1ccc(N2C(=O)C=C(c3ccccc3)C2=O)cc1
inactive: dose: 75.0 mg/kg/injection, schedule: Q04DX003 (ip), vehicle: Klucel (hydroxypropylcellulose) (HPC) 104 % of control | dose: 150.0 mg/kg/injection, schedule: Q04DX003 (ip), vehicle: Klucel (hydroxypropylcellulose) (HPC) 105 % of control | dose: 300.0 mg/kg/injection, schedule: Q04DX003 (ip), vehicle: Klucel (hydroxypropylcellulose) (HPC) 104 % of control

O=C(NC1CCCCC1)N(O)C12CC3CC(CC(C3)C1)C2
inactive: [6] 108 % of control | [10] 92 % of control | [14] 95 % of control

COC(=O)C1CC[N-]CC1.COC(=O)C1CC[N-]CC1.[Cl][Pt+2][Cl]
inactive: [9] 106 % of control | [13] 106 % of control | [16] 106 % of control

Nc1ncnc2nc(-c3ccccc3)[nH]c12
inactive: dose: 25.0 mg/kg/injection, schedule: Q04DX002 (ip), vehicle: Klucel (hydroxypropylcellulose) (HPC) 102 % of control | dose: 50.0 mg/kg/injection, schedule: Q04DX002 (ip), vehicle: Klucel (hydroxypropylcellulose) (HPC) 94 % of control | [17] 91 % of control

C1=C(c2ccccc2)CCN(C2(c3ccccc3)CCCCC2)C1
inactive: [18] 101 % of control | [19] 93 % of control | [20] 95 % of control

CCOC(=O)Nc1cccc(Cl)c1Cl
inactive: [9] 101 % of control | [13] 98 % of control | [16] 93 % of control

O=c1[nH]c2c(Cl)cccc2c2ccccc12
inactive: dose: 100.0 mg/kg/injection, schedule: Q01DX001 (ip), vehicle: carboxymethylcellulose (CMC) 100 % of control | dose: 200.0 mg/kg/injection, schedule: Q01DX001 (ip), vehicle: carboxymethylcellulose (CMC) 107 % of control | dose: 400.0 mg/kg/injection, schedule: Q01DX001 (ip), vehicle: carboxymethylcellulose (CMC) 102 % of control

Cc1nccn1C
inactive: [18] 101 % of control | [19] 90 % of control | [20] 92 % of control

CCOC(=O)N1C2C(c3ccccc3)=NC(C)(C)N2C(c2ccc([N+](=O)[O-])cc2)N1C(=O)OCC (stereo not drawn)
inactive: [21] 93 % of control | [22] 102 % of control | [23] 91 % of control

COC(=O)c1cc([N+](=O)[O-])cc([N+](=O)[O-])c1Br
inactive: dose: 3.0 mg/kg/injection, schedule: Q01DX009 (ip), vehicle: saline with Tween-80 100 % of control | dose: 6.0 mg/kg/injection, schedule: Q01DX009 (ip), vehicle: saline with Tween-80 98 % of control | dose: 12.0 mg/kg/injection, schedule: Q01DX009 (ip), vehicle: saline with Tween-80 98 % of control | dose: 12.5 mg/kg/injection, schedule: Q01DX009 (ip), vehicle: Klucel (hydroxypropylcellulose) (HPC) 96 % of control | dose: 12.5 mg/kg/injection, schedule: Q04DX003 (ip), vehicle: Klucel (hydroxypropylcellulose) (HPC) 100 % of control | [24] 89 % of control | dose: 25.0 mg/kg/injection, schedule: Q04DX003 (ip), vehicle: Klucel (hydroxypropylcellulose) (HPC) 94 % of control | dose: 50.0 mg/kg/injection, schedule: Q04DX003 (ip), vehicle: Klucel (hydroxypropylcellulose) (HPC) 94 % of control

c1cc[c]([Sn]([c]2ccccc2)([c]2ccccc2)[c]2ccccc2)cc1
inactive: dose: 50.0 mg/kg/injection, schedule: Q01DX009 (ip), vehicle: saline with Tween-80 95 % of control | [7] 90 % of control | [11] 100 % of control

CC(=O)OCC(=O)C12OC1CC1C3CCC4CC(=O)CCC4(C)C3CC(=O)C12C (stereo not drawn)
inactive: [21] 89 % of control | [22] 90 % of control | [23] 97 % of control

COc1ccc(OC(=O)Nc2ccc(C)cc2[N+](=O)[O-])cc1
inactive: [9] 102 % of control | [13] 98 % of control | [16] 93 % of control

O=C(CBr)c1ccc(-c2ccccc2)cc1
inactive: dose: 6.0 mg/kg/injection, schedule: Q01DX009 (ip), vehicle: Klucel (hydroxypropylcellulose) (HPC) 100 % of control | dose: 12.0 mg/kg/injection, schedule: Q01DX009 (ip), vehicle: Klucel (hydroxypropylcellulose) (HPC) 96 % of control | [24] 98 % of control | [4] 98 % of control | [5] 102 % of control

Nc1cc(Cl)ccc1Cl
inactive: dose: 100.0 mg/kg/injection, schedule: Q04DX002 (ip), vehicle: gum acacia 91 % of control | dose: 200.0 mg/kg/injection, schedule: Q04DX002 (ip), vehicle: gum acacia 95 % of control | dose: 400.0 mg/kg/injection, schedule: Q04DX002 (ip), vehicle: gum acacia 95 % of control

Cc1cc(Cl)nc2ccc(Cc3ccccc3)cc12
inactive: [18] 102 % of control | [19] 96 % of control | [20] 103 % of control

C[C@]12C(=O)OC(=O)[C@H]1[C@H]1CC[C@@H]2C1
inactive: [18] 110 % of control | dose: 100.0 mg/kg/injection, schedule: Q01DX009 (ip), vehicle: acetone 102 % of control | [25] 104 % of control | [19] 106 % of control | dose: 200.0 mg/kg/injection, schedule: Q01DX009 (ip), vehicle: acetone 89 % of control | [26] 101 % of control | [20] 111 % of control | [27] 104 % of control

O=S(=O)(/C=C/c1ccc(-c2ccccc2)cc1)c1ccccc1
inactive: dose: 100.0 mg/kg/injection, schedule: Q01DX001 (ip), vehicle: acetone 101 % of control | dose: 100.0 mg/kg/injection, schedule: Q01DX009 (ip), vehicle: saline 94 % of control | [25] 108 % of control | dose: 200.0 mg/kg/injection, schedule: Q01DX001 (ip), vehicle: acetone 89 % of control | dose: 200.0 mg/kg/injection, schedule: Q01DX009 (ip), vehicle: saline 96 % of control | [26] 96 % of control | dose: 400.0 mg/kg/injection, schedule: Q01DX001 (ip), vehicle: acetone 98 % of control | dose: 400.0 mg/kg/injection, schedule: Q01DX009 (ip), vehicle: saline 96 % of control | [27] 96 % of control

C1CCC2(CC1)CCCO2
inactive: dose: 50.0 mg/kg/injection, schedule: Q04DX002 (ip), vehicle: saline with Tween-80 87 % of control | [8] 98 % of control | [12] 106 % of control | [15] 102 % of control

N#CCCN1c2ccccc2Sc2ccc(Cl)cc21
inactive: [1] 96 % of control | [2] 101 % of control | [3] 98 % of control
